Laboratory results published in patent US12291502B2, “Topoisomerase II-alpha inhibitors and methods of treating cancer using the same” (The Regents of the University of Colorado, priority 2019, dated 2025).
Values joined by “and” are separate entries in the source; they are usually repeats but may differ in a detail not shown here. Equal values may be shown once. “Also recorded” adds a separate entry of the source. Read-outs that look alike come from different tables or passages of the source.

Assays:
[1] = system: TOP2A-dependent TCF-transcription in SW620-TOP tumor organoids; test: TCF (TOPflash) reporter assay in 3D tumor organoids; assay type: cell-based; settings: for IC50: 72 hours
Procedure: TCF reporter assay in 3D Tumor organoid. Stable engineered cells containing pCDH-TOPflash-luc-EF1-puro were used to generate tumor organoid arrayed in 96-well plates and treated for 72 hours. One-Glo™ luciferase reagent and CellTiter-Glo™ 3D cell viability reagent (Promega) were used to determine the TCF reporter activity in viable cells.
After characterizing 3 and 7 as TOP2A ATP-competitive inhibitors, these compounds were next tested for their ability to inhibit TOP2A-dependent TCF-transcription using the well characterized TOPflash (TOP) luminescent reporter, which was used to generate a stably transduced SW620-TOP reporter cells as described previously (Zhou, et al., Oncogene 2016, 35:4990-9). These cells were used to generate single 3D tumor organoids (700 μm in diameter) uniformly arrayed in 96-well plates, which mimic aspects of tumor function observed in vivo. […] Like neo, the mode of action of compounds 3 and 7 also results in significant antitumor activity (FIGS. 3E-3H). […] In other words, the activity of 3 and 7 is long lasting, suppressing CSC stemness and related tumorigenicity. EMT is a major driving force promoting tumor cell invasion and metastasis. […] Tumor organoids were dissociated, and viable cells were washed and plated into the top chamber of 96-well invasion plate coated with Matrigel and incubated for an additional 72 hours without adding any additional compound. […] Taken together, the biological activity of 3 and 7 is consistent with the activity of neo, inhibiting TOP2A-dependent TCF-transcription that in turn reverses EMT while inhibiting the associated tumorigenic properties of mCRC.
A similar trend in IC50 values was observed compared to TOP2A enzyme studies, further supporting our proposed mechanism of action as inhibition of TOP2A-dependent TCF-transcription.
3D Tumor organoid TOPflash reporter assay. […] 35(38): p. 4990-9.] were used to generate tumor organoids arrayed in 96-well plates and treated for 72 h with TOP2A inhibitors. One-Glo™ luciferase reagent and CellTiter-Glo™ 3D cell viability reagent (Promega, WI) were used to determine the TCF reporter activity in viable cells. Briefly, reagents were added to the spheroids at 1:1 ratio (v:v) and the plates were placed on an orbital shaker (300 rpm) for 10 min at room temperature before the luminescence was read with Envision plate reader (PerkinElmer, MA). TCF reporter activity was normalized to organoid viability and inhibitors treated conditions were normalized to DMSO treated controls.

Human TOP2A = biological target: T1, Human TOP2A (Homo sapiens, UniProt P11388); test: TOP2A DNA decatenation assay (kDNA, agarose gel); assay type: biochemical; settings: for IC50: decatenation dose response; for % Inhibition TOP2A (30 μM) / inhibition at 30 µM: decatenation, 30 μM fixed concentration; for TOP2A inhibition, result in words: decatenation screen at 30 μM; for inhibition at 30 µM: 1 h, read-out: % Inhibition TOP2A (30 μM)
T1 construct: purchased TopoGEN (Buena Vista, CO)
Procedure: Inhibition of TOP2A activity. Human TOP2A, kDNA, and assay buffers were obtained from TopoGEN (Buena Vista, CO). The synthesized compounds were screened for their TOP2A inhibitory activity by the intensity of DNA decatenation bands on a DNA gel when compared to the vehicle. Compounds were initially incubated with TOP2A (3 U/reaction) for 20 min at a 30 μM and 1.2% DMSO concentration in a 37° C. incubator without CO2.
The decatenation reaction was initiated immediately after by adding 2 mM ATP and 35 ng/reaction of kDNA, then incubated for 1 hour in a 37° C. water bath. The samples were loaded into a 0.8% agarose gel in 1× Tris-Borate-EDTA (TBE) at a 0.2 μg/mL ethidium bromide concentration and allowed to run in an electrophoretic chamber for 1 hour at 100V. Compounds with the highest inhibitory activity were selected for 2-fold serial dilution dose-response assays (58.6 nM-30 μM). The dose-response assays followed the same protocol with the exception of 4 U/reaction of TOP2A.
Inhibition studies of TOP2A and observed structure activity relationships (SAR). DNA catenation/decatenation or linking/unlinking of DNA is one of the main TOP2A functions essential for regulating DNA topology, and this is ATP dependent. […] Thus, as a starting point, the synthesized analogs were screened against TOP2A-dependent decatenation using 30 μM fixed concentrations, and the DNA from reactions were resolved on 0.8% agarose gels containing ethidium bromide.
Moreover, these studies provided interesting SAR, which shed light on the potential lead drug target binding interactions and affinity, biological activity, and future drug design optimization with this unique class of TOP2A inhibitors.
(§1) TOP2A decatenation assay. Human TOP2A, kDNA, and assay buffers were obtained from TopoGEN (Buena Vista, CO). The synthesized compounds were screened for their TOP2A inhibitory activity by the intensity of DNA decatenation bands on a DNA gel when compared to the vehicle. Compounds were initially incubated with TOP2A (3 U/reaction) for 20 min at a 30 μM and 1.2% DMSO concentration in a 37° C. incubator without CO2. The decatenation reaction was initiated immediately after by adding 2 mM ATP and 35 ng/reaction of kDNA, then incubated for 1 h in a 37° C. water bath. The samples were loaded into a 0.8% agarose gel in 1× Tris-Borate-EDTA (TBE) at a 0.2 μg/mL ethidium bromide concentration and allowed to run in an electrophoretic chamber for 1 h at 100V. Compounds with the highest inhibitory activity were selected for 2-fold serial dilution dose-response assays (58.6 nM-30 μM). The dose-response assays followed the same protocol with the exception of 4 U/reaction of TOP2A,
as §1, with “assays (53.6” for “assays (58.6”, “of TOP2A.” for “of TOP2A,”

[2] = system: E-cadherin promoter activity (EcadPro-RFP) in SW620 cells; test: EcadPro-RFP (mCherry) EMT reporter assay; assay type: cell-based; settings: SW620 tumor organoids; for EC50: Table 2, 72 hours, read-out: % E-cadherin upregulation EC50
From the text: (§2) VimPro-GFP and EcadPro-RFP reporter assays. […] 35(38): p. 4990-9.]
as §2

[3] = SW620-TOP tumor organoids, read-out: IC50 inhibition of TCF-transcription
[4] = Table 1, read-out: % Inhibition TOP2A (IC50 Values)
[5] = read-out: IC50 TOP2A inhibition
[6] = Homo sapiens, SW-620, Table 2, SW620 tumor organoids, read-out: % TCP inhibition IC50

T1 sequence (P11388 whole entry): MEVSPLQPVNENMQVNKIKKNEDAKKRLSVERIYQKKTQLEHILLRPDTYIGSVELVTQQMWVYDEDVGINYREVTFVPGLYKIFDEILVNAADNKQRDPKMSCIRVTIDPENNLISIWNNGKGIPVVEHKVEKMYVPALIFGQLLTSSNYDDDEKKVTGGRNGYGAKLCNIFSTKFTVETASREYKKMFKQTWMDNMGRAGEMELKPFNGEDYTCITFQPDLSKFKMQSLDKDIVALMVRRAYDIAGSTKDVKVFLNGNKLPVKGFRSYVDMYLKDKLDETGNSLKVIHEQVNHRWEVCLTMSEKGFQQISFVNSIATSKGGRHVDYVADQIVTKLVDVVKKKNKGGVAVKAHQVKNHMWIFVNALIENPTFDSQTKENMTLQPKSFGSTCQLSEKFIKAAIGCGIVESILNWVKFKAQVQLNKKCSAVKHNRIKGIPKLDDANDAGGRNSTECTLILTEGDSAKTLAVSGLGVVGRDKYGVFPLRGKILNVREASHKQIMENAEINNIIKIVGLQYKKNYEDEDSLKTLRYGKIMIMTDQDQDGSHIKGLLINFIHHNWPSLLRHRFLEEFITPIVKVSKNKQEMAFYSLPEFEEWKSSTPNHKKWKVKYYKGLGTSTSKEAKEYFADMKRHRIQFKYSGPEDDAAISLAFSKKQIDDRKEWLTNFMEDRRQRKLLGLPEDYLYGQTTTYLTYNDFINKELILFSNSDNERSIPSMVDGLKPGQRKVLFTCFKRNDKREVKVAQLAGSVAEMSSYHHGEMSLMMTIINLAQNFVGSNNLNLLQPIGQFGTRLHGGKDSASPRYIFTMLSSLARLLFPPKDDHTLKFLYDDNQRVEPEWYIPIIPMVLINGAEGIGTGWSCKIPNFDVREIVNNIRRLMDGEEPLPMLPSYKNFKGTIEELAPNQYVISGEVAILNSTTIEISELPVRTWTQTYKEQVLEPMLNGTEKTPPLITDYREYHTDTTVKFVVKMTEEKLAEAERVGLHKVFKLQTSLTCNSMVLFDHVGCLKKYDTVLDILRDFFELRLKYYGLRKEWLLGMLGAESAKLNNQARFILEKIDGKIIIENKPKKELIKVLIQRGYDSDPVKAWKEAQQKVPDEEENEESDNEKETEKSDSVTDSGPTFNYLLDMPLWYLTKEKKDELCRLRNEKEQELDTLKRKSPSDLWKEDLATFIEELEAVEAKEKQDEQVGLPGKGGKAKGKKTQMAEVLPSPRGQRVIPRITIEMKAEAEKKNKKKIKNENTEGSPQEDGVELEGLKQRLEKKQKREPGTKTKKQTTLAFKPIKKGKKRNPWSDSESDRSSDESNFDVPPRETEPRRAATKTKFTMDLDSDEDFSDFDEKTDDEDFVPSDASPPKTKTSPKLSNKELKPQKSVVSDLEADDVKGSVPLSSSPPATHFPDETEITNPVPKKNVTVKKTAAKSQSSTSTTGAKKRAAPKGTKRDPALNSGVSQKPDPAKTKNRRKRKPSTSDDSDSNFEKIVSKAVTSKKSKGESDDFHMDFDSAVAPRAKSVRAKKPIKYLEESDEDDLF

SMILES	IC50 [1, 3] [µM]	IC50 (Human TOP2A; [4]) [µM]	% Inhibition TOP2A (30 μM) (Human TOP2A; Table 1) [%]	TOP2A inhibition, result in words (Human TOP2A)	EC50 [2] [µM]	IC50 ([1]; Table 2, SW620 tumor organoids, read-out: % TCP inhibition IC50) [µM]	IC50 (Human TOP2A; [5])	IC50 [1, 6] [µM]	inhibition at 30 µM (Human TOP2A; Table 1) [%]	EC50 ([2]; Homo sapiens, SW-620) [µM]	inhibition of TCF-transcription (TOP-activity), in words ([1]; SW620 tumor organoids, TOPflash reporter)	E-cadherin upregulation (EcadPro-RFP), in words [2]
CC(=O)Nc1ccc(-c2ccnc3c(O)c(NC(C)=O)ccc23)cc1 [Analog 35]	2	1.9	97.0	restored inhibitory activity against TOP2A	5.5	–	–	–	–	–	–	–
CC(C)(C)C(=O)Nc1ccc2c(-c3ccccc3)ccnc2c1O [Analog 39]	–	1.3	97.0	–	3.1	4.7	~1 µM	–	–	–	–	–
Cn1ccc2c(c1=O)C(=O)c1nccc3c1C2NC1=CCC=CC13 (stereo not drawn) [neo, neoamphimedine, reference compound]	–	–	–	significantly inhibits TOP2A mediated DNA decatenation	–	–	–	–	–	–	–	–
O=C(CCN1CCOCC1)Nc1ccc2c(-c3cc(F)ccc3O)ccnc2c1O [Analog 42]	3.2	–	–	–	–	–	0.6 µM	3.2	90	5.9	–	–
CC(=O)Nc1ccc2c(-c3ccoc3)ccnc2c1O [Analog 56]	–	6.4	–	–	–	–	–	7	86	10.6	–	–
CC(=O)Nc1ccc2c(-c3cc(F)ccc3O)ccnc2c1O [Analog 7]	–	–	–	complete enzyme inhibition	–	–	5.81 µM and 5.8 µM	6	99	5.3	significantly inhibit TOP-activity; also recorded: significantly inhibit TOP2A-dependent TCF-transcription	upregulation of E-cadherin
